Read-outs that look alike come from different tables or passages of the source.
Tests used:
[1] = system: Methylobacterium sp. (CRL-26, NRRL-B-11,208); test: Conversion of n-alkanes to secondary alcohols by cell suspensions; type: cell-based; details: growth substrate Methane
From the text: (§1) Both cell suspensions (particulate fraction) and cell-free particulate fraction of methane-grown methylotroph microorganisms are capable of catalyzing the conversion of C3 -C6 n-alkanes to the corresponding alcohols including secondary alcohols. The conditions for preparing the cell suspensions or the cell-free particulate fractions from methane-grown methylotroph microorganisms is the same as described above. The cell-free particulate fraction requires the presence of oxygen and NADH as an electron donor. […] Tables XVI and XVII show the conversion of C3 -C6 n-alkanes to the corresponding secondary alcohols using cell suspensions and cell-free particulate fractions, respectively, of methane-grown methylotroph microorganisms.

[2] = system: Methylobacter capsulatus (Y, NRRL-B-11,201); test: as above; type: cell-based; details: growth substrate Methane
From the text: as §1

[3] = system: Methylosinus sp. (CRL-15, NRRL-B-11,202); test: as above; type: cell-based; details: growth substrate Methane
From the text: as §1

[4] = system: Methylococcus capsulatus (Texas, ATCC 19,069); test: as above; type: cell-based; details: growth substrate Methane
From the text: as §1

[5] = system: Methylomonas sp. (CRL-17, NRRL-B-11,209); test: as above; type: cell-based; details: growth substrate Methane
From the text: as §1

[6] = system: Methylosinus trichosporium (OB3b, NRRL-B-11,196); test: as above; type: cell-based; details: growth substrate Methane
From the text: as §1

[7] = system: Methylosinus trichosporium OB3b NRRL B-11,196; test: Conversion of n-alkanes to oxidation products by cell suspensions; type: cell-based; details: methane-grown cell suspension, pH 7.0
Experimental: (§11) ^(a) Cell-suspensions of methanegrown methylotroph microorganisms
(§12) indicated in 0.15 M phosphate buffer, pH 7.0 incubated in the alkanes as
(§13) indicated at 3° C. The oxidation products were determined by g.l.c

[8] = system: Methylococcus capsulatus CRL M1 NRRL B-11,219; test: as above; type: cell-based; details: methane-grown cell suspension, pH 7.0
Experimental: as §11, §12, §13

[9] = system: Methylomonas methanica SI (NRRL B-11,199); test: Oxidation of n-alkanes to methyl ketones by resting cell suspension; type: cell-based; details: cell suspension grown on methane
Experimental: (§2) The pH of the nutrient medium was adjusted to 7.0 by the addition of acid or base and 50 ml. samples of the nutrient medium were charged into a plurality of 300 ml. shaker flasks. […] The isolates had been maintained on methanol (0.4% V/V) agar plates or on agar plates under an atmosphere of methane and air having a 1:1 V/V gas ratio which had been transferred every two weeks. For growth on methanol, the medium was supplemented with 0.4% methanol. For growth on methane, the gaseous phase of the inoculated flasks was replaced with a gas mixture comprised on methane and air having a ratio of 1:1 on a V/V basis. The inoculated flasks were sealed air-tight and were incubated on a rotary shaker of orbital radius 2.5 cm. at 250 rpm and at 30° C. for two days until turbidity in the medium had developed. The cells were harvested by centrifugation at 10,000×g. at 4° C. for 30 minutes. The cell pellet was washed twice with a 0.05 M phosphate buffer at a pH of 7.0 (containing 0.02 M MgCl2). The washed cells were then suspended in a 0.05 M phosphate buffer at pH 7.0.
(§3) A 0.5 ml. sample of each washed cell suspension (2 mg. cells) was put into 10 ml. vials at 4° C. which were sealed with a rubber cap. The gaseous phase of the vials was removed with vacuum and then was replaced with a gas mixture of the substrate reactant (i.e., alkane or secondary alcohol) and oxygen at a 1:1 V/V ratio. (In the case of a liquid substrate, i.e., secondary alcohol, 10 μl of the substrate was put in the 10 ml. vials). The vials were then incubated at 30° C. on a rotary shaker at 300 rpm. Samples of product (1-3 μl) were withdrawn periodically with a microsyringe and the products were analyzed by gas chromatography (ionization flame detector column).

[10] = system: Methylosinus trichosporium OB3b (NRRL B-11,196); test: as above; type: cell-based; details: cell suspension grown on methane
Experimental: as §2, §3

[11] = system: Methylocystis parvus OBBP (NRRL B-11,198); test: as above; type: cell-based; details: cell suspension grown on methane
Experimental: as §2, §3

[12] = system: Methylosinus sporium 5 (NRRL B-11,197); test: as above; type: cell-based; details: cell suspension grown on methane
Experimental: as §2, §3

[13] = system: Methylobacterium organophilum XX; test: as above; type: cell-based; details: cell suspension grown on methane
Experimental: as §2, §3

[14] = system: Methylomonas albus BG8 (NRRL B-11,200); test: as above; type: cell-based; details: cell suspension grown on methane
Experimental: as §2, §3

[15] = system: Methylobacter capsulatus Y (NRRL B-11,201); test: as above; type: cell-based; details: cell suspension grown on methane
Experimental: as §2, §3

[16] = system: Methylococcus capsulatus Texas (ATCC 19069); test: as above; type: cell-based; details: cell suspension grown on methane
Experimental: The pH of the nutrient medium was adjusted to 7.0 by the addition of acid or base and 50 ml. samples of the nutrient medium were charged into a plurality of 300 ml. shaker flasks. The shaker flasks were inoculated with an inoculating loop of cells from an agar plate containing homogeneous colonies of the microorganisms on the plate (the purity of the isolates was confirmed by microscopic examination). The isolates had been maintained on methanol (0.4% V/V) agar plates or on agar plates under an atmosphere of methane and air having a 1:1 V/V gas ratio which had been transferred every two weeks. For growth on methanol, the medium was supplemented with 0.4% methanol. For growth on methane, the gaseous phase of the inoculated flasks was replaced with a gas mixture comprised on methane and air having a ratio of 1:1 on a V/V basis. The inoculated flasks were sealed air-tight and were incubated on a rotary shaker of orbital radius 2.5 cm. at 250 rpm and at 30° C. for two days until turbidity in the medium had developed. The cells were harvested by centrifugation at 10,000×g. at 4° C. for 30 minutes. The cell pellet was washed twice with a 0.05 M phosphate buffer at a pH of 7.0 (containing 0.02 M MgCl2). The washed cells were then suspended in a 0.05 M phosphate buffer at pH 7.0.
as §3, with “The vials were then incubated at 30° C. on a rotary shaker at 300 rpm.” left out

[17] = system: particulate P(40) fraction of Methylobacterium sp. (CRL-26, NRRL-B-11,222); test: Hydroxylation of n-alkanes to secondary alcohols by particulate P(40) fraction; type: biochemical
From the text: as §1
(§4) ^(a) Particulate P(40) fraction was prepared as follows:
(§5) Cellsuspensions at 4° C. were disintegrated through a French
(§6) Pressure cell and centrifuged at 4000 × g. for 15 min. to remove
(§7) unbroken bacteria. The supernatant solution was then centrifuged at 40,00
(§8) × g. for 30 min. at 4° C. yielding the particulate P(40) and
(§9) soluble S(40) fractions. The products were identified by gas
(§10) chromatography and cochromatography with authentic standard.

[18] = target: particulate P(40) fraction of Methylosinus sp. (CRL-15, NRRL-B-11,202) (Methylosinus trichosporium, UniProt Q50541+Q9KX50+Q9KX51); test: as above; type: biochemical
particulate P(40) fraction of Methylosinus sp. (CRL-15, NRRL-B-11,202), sequence (Q9KX50 40-431): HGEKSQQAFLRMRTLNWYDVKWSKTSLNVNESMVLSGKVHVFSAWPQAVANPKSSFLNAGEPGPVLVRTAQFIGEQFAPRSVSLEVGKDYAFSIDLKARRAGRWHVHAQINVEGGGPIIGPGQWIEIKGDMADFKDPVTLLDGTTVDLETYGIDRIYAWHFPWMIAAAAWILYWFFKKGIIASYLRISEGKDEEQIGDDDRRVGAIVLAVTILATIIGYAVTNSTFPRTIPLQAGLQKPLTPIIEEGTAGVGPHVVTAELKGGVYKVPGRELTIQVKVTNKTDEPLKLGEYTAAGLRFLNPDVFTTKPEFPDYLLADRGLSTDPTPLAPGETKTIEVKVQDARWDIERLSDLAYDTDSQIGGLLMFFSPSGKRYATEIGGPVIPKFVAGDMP
particulate P(40) fraction of Methylosinus sp. (CRL-15, NRRL-B-11,202), sequence (Q50541 1-252): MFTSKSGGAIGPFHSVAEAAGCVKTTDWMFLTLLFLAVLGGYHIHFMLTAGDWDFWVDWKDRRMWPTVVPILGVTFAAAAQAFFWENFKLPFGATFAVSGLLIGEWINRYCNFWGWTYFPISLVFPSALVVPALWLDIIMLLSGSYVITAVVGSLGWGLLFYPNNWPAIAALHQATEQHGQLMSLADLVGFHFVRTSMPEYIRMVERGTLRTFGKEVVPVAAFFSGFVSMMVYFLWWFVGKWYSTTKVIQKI
particulate P(40) fraction of Methylosinus sp. (CRL-15, NRRL-B-11,202), sequence (Q9KX51 1-256): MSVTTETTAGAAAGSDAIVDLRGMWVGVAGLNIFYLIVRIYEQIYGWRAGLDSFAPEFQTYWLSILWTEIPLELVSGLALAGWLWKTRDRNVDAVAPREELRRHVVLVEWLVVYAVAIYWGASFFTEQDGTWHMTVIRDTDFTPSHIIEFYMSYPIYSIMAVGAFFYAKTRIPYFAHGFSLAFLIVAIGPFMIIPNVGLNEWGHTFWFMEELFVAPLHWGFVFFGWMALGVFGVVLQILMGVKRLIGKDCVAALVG
From the text: as §1, §4, §5, §6, §7, §8, §9, §10

[19] = system: particulate P(40) fraction of Methylosinus trichosporium (OB3b, NRRL-B-11,196); test: as above; type: biochemical
From the text: as §1, §4, §5, §6, §7, §8, §9, §10

[20] = system: particulate P(40) fraction of Methylococcus capsulatus (Texas, ATCC 19,069); test: as above; type: biochemical
From the text: as §1, §4, §5, §6, §7, §8, §9, §10

[21] = system: cell-free extracts of strain ATCC 21439; details: fluorescence spectrophotometry
Experimental: The reaction mixtures 3 ml (1.0 mg protein) were incubated at 30°
C. for 10 min. (exp. 1) and for 20 min. (exp. 2) in the presence of 1.0
^(a) Determined gas chromatographically.
^(b) Determined fluorescence spectrophotometrically. Endogenous
consumption of NAD was corrected.

[22] = system: secondary alcohol dehydrogenase; test: Activity of purified yeast-derived secondary alcohol dehydrogenase; type: biochemical, Pichia sp. NRRL Y-11,328; details: purified enzyme
[23] = system: cell-free secondary alcohol dehydrogenase (SADH) system; test: Cofactor requirement of cell-free soluble extracts oxidizing 2-butanol; type: biochemical
Experimental: To prepare the cell-free secondary alcohol dehydrogenase (SADH) system, the washed cells were disrupted with a Wave Energy Ultrasonic Oscillator, Model W201 (Wave Energy System, Inc., Newtown, Pa.) and centrifuged at 20,000× g. for 30 minutes. […] The enzyme activity was measured with a fluorescence spectrophotometer (Perkin Elmer, Model MPF 44A) by following the formation of reduced NAD (EX 340 nm, Em 460 nm). The formation of reduced NAD was also followed with an absorption spectrophotometer at 340 nm. The assay system (3 ml.) contained: potassium phosphate buffer pH 7.0; 150 μmol.; NAD 1 μmol.; a given amount of enzyme preparation; and secondary alcohol 10 μmol. The reaction was started by the addition of substrate. One unit of enzyme activity represents the reduction of one μmole NAD per minute. Protein concentrations were determined by the Lowry method (J. Biol. Chem., 193: 255-275 (1951)).

CCCC [n-Butane, n-butane]
Conversion Rate, n-alkane to secondary alcohol [1]: 0.80 μmoles/hr/^5 mg. protein
Conversion Rate, n-alkane to secondary alcohol [2]: 0.09 μmoles/hr/^5 mg. protein
Conversion Rate, n-alkane to secondary alcohol [3]: 1.2 μmoles/hr/^5 mg. protein
Conversion Rate, n-alkane to secondary alcohol [4]: 1.0 μmoles/hr/^5 mg. protein
Conversion Rate, n-alkane to secondary alcohol [5]: 1.2 μmoles/hr/^5 mg. protein
Conversion Rate, n-alkane to secondary alcohol [6]: 1.5 μmoles/hr/^5 mg. protein
Conversion Rate to product 1-Butanol [7]: 0.3 μmoles/hr./mg./protein
Conversion Rate to product 2-Butanol [7]: 0.4 μmoles/hr./mg./protein
Conversion Rate to product 2-Butanone [7]: 0.1 μmoles/hr./mg./protein
Conversion Rate to product n-butanol [7]: 0.1 μmoles/hr./mg./protein
Conversion Rate to product 1-Butanol [8]: 0.4 μmoles/hr./mg./protein
Conversion Rate to product 2-Butanol [8]: 0.5 μmoles/hr./mg./protein
Conversion Rate to product 2-Butanone [8]: 0.2 μmoles/hr./mg./protein
Conversion Rate to product n-butanol [8]: 0.2 μmoles/hr./mg./protein
Conversion Rates, n-alkane to methyl ketone [9]: 0.30 μmoles/hr/mg protein
Conversion Rates, n-alkane to methyl ketone [10]: 1.2 μmoles/hr/mg protein
Conversion Rates, n-alkane to methyl ketone [11]: 1.0 μmoles/hr/mg protein
Conversion Rates, n-alkane to methyl ketone [12]: 0.58 μmoles/hr/mg protein
Conversion Rates, n-alkane to methyl ketone [13]: 2.0 μmoles/hr/mg protein
Conversion Rates, n-alkane to methyl ketone [14]: 0.60 μmoles/hr/mg protein
Conversion Rates, n-alkane to methyl ketone [15]: 1.1 μmoles/hr/mg protein
Conversion Rates, n-alkane to methyl ketone [16]: 0.52 μmoles/hr/mg protein
Conversion Rate, n-alkane to secondary alcohol [17]: 0.61 μmoles/hr/2.0mg. of protein
Conversion Rate, n-alkane to secondary alcohol [18]: 0.89 μmoles/hr/2.0mg. of protein
Conversion Rate, n-alkane to secondary alcohol [19]: 0.79 μmoles/hr/2.0mg. of protein
Conversion Rate, n-alkane to secondary alcohol [20]: 0.92 μmoles/hr/2.0mg. of protein

NC(=O)c1ccc[n+]([C@@H]2O[C@H](COP(=O)([O-])OP(=O)(O)OC[C@H]3O[C@@H](n4cnc5c(N)ncnc54)[C@H](O)[C@@H]3O)[C@@H](O)[C@H]2O)c1 [NAD, Nicotinamide adenine dinucleotide]
NAD Consumed ([21]; Experiment 1: 10 min): 270 nmol
NAD Consumed ([21]; Experiment 2: 20 min): 540 nmol
ability to act as electron acceptor/carrier [22]: required
effectiveness as cofactor for oxidation of 2-butanol [23]: required
